Legend:
skin = settings: healthy subjects, cited from earlier work
rheumatoid arthritis = experiment: Treatment of patients suffering from rheumatoid arthritis (CRP, tender/swollen joints, HAQ, patient's statement); format: in vivo, human
polymyalgia rheumatica = experiment: Treatment of patients suffering from polymyalgia rheumatica (CRP, tender/swollen joints, HAQ); format: in vivo, human; settings: Patient 14; 70 mg gradually reduced to 8 mg, increased again to 10 mg
Description: The investigation and determination of the joint condition has been performed by a physician or rheumatologist. A tender joint (TJ) was pressure sensitive but not necessarily swollen. […] The amount of TJ and SJ was counted. A reduction in the amounts of TJ and/or SJ, respectively, was an indication for a reduction in inflammation, mitigation of the disease and an improvement of the patient's health condition.
The CRP (C-reactive protein) is the most important blood laboratory value for detecting and monitoring inflammation in the body. It was determined by a certified laboratory. A low CRP indicates the absence of an inflammation, while a high CRP is indicative for an inflammation to be present.
The functional disability index (HAQ) is the average of the highest numerical values reported for each of the eight different domains. High HAQ-scores correspond to a high degree of disability.
The treatment according to the present invention was performed by topically applying a heat pad on the upper side of the forearm as described in the Materials and Methods' section ‘Application of a heat pad’. The heat pad was applied for about 1 min to 2 min. The skin turned red and became warm and an increase in the skin temperature was palpable. About 30 see to 1 min after removing the heat pad the injections were performed intradermally within the skin of the red and warmed skin area. […]

[1] = test system: ankylosing spondylitis (Bechterew's disease); format: in vivo, human; settings: for Outcome of earlier treatment with TNF-α inhibitors (patient history): human, in vivo

## COC(=O)c1cccnc1 [MN, methyl nicotinate]
skin; 50 μl of 20 mmol/l MN topically
  Perfusion response of the skin: reproducible perfusion response
skin; topical application of MN
  Time course of the perfusion increase: reaches a stable plateau phase after five minutes

## CN(Cc1cnc2nc(N)nc(N)c2n1)c1ccc(C(=O)N[C@@H](CCC(=O)O)C(=O)O)cc1 [MTX, methotrexate]
Rheumatoid arthritis; human, in vivo
  Adverse side effects / outcome of earlier treatment (patient history): severe adverse effects (tendency to fibrosis in the lungs and sinusitis)

## C[C@]12C=CC(=O)C=C1CC[C@@H]1[C@@H]2[C@@H](O)C[C@@]2(C)[C@H]1CC[C@]2(O)C(=O)CO [prednisolone]
Polymyalgia rheumatica
  Outcome of earlier treatment (patient history): without complete remission of symptoms

## CC[C@@H]1CN(C(=O)NCC(F)(F)F)C[C@@H]1c1cnc2cnc3[nH]ccc3n12 [upadacitinib]
Rheumatoid arthritis; Patient 7, years 2008 to April 2021
  Adverse side effects / outcome of earlier treatment (patient history): severe adverse effects (tendency to fibrosis in the lungs and sinusitis)

## Enbrel®
[1]
  Outcome of earlier treatment with TNF-α inhibitors (patient history): accompanied by strong adverse side effects

## Remicade®: TNF-α inhibitor
[1]
  Outcome of earlier treatment with TNF-α inhibitors (patient history): accompanied by strong adverse side effects

## Simponi®: biologic, golimumab; TNF-α inhibitor
[1]; Patient 11, ended more than a year before, lost their effect within half a year
  Effect of earlier treatment with biologics (patient history): had little effect from the outset
[1]
  Outcome of earlier treatment with TNF-α inhibitors (patient history): accompanied by strong adverse side effects

## tocilizumab: IL-6 inhibitor
Rheumatoid arthritis; Patient 7, not the treatment of the invention
  Effectiveness of earlier or basic treatment (patient history): only partially efficient
